For data set [1], the system named is lung cancer cells and some blood cancer cells. The data set can be described thus: MTT growth inhibition in ACP52C‐resistant cells. It is filed as cell-based, human. Particulars: concentrations up to 1 mM.
Experimental: Various cell lines were treated with peptides, either alone or in combination with the CASP2 inhibitor (Ac‐VDVAD‐CHO; Enzo ALX‐260‐058‐M001) at various concentrations for 4 days. Cell viability was assessed on day 2 or day 4 using MTT (3‐(4,5‐dimethylthiazol‐2‐yl)‐2,5‐diphenyltetrazolium bromide; Sigma–Aldrich, M2128) assay. In brief, fresh cells were seeded in flat‐bottomed 96‐well tissue culture plates at appropriate concentrations for each cell line per well using complete culture medium. The cells were incubated in 100 µL of culture medium containing various concentration of chemicals or peptides at 37 °C for 0 to 96 h. A solution of MTT (5 mg mL^−1) was added to the culture medium, and the cells were further incubated at 37 °C for an additional 3 h. The MTT medium was then removed, and the formazan crystals were dissolved in DMSO (100 µL per well). The formazan concentration was measured spectrophotometrically at 490 nm using a Varioskan Flash Spectral Scanning Multimode Reader (Thermo Scientific Korea). Nonlinear regression curves for growth inhibition and GI50 values for each cell line were estimated from independent replicates using the Prism (version 6) software (GraphPad Software Inc.)
The test system of data set [2] is normal male and female mice. The data set is described as follows: In vivo toxicity test of ACP52C. Set-up: species or system mouse. Particulars: ICR mice, 100 or 1000 mg kg^−1 intravenously, once or twice with four‐day interval; H&E of major organs. As to the method:
To assess the toxicity of ACP52C, twelve 6‐weeks‐old ICR mice (six males and six females) were divided into three groups, each containing two mice: one group received a saline, another received 100 mg kg^−1 of ACP52C, and the third received 1000 mg kg^−1 of ACP52C. For each group, one mouse was intravenously injected once, and the other one was intravenously injected twice with a four‐day interval between injections. At the time of sacrifice, major organs were analyzed by H&E staining. To assess the repeated toxicity of ACP52CGK, twenty‐four 6‐weeks‐old ICR mice (twelve males and twelve females) were used, dividing them into two groups of six mice each: one group received saline, and the other received 100 mg kg^−1 of ACP52CGK. […] Body weight, water and feed consumption were measured every 3 days after injection. […] Major organs were weighed and analyzed by H&E staining. H&E‐stained tissue sections were analyzed and photographed, and the representative histological images were recorded. […]
A-C) Anticancer effects of ACP52C in xenograft model mice. […] Data are expressed as means ± SD, and the number […]
effective tumor targeting. […] The estimated residual levels of Cy5-ACP52C in the body over time were determined by quantifying the fluorescence intensity of images (right). RL50 represents the required time for a 50% retention of fluorescence level. (F) Bright field and fluorescence images of the […]

For data set [3], the system named is normal cells derived from humans or mouse. The data set is described as follows: MTT growth inhibition in normal cells. It is filed as cell-based, human. Conditions: concentrations up to 10 µM. The source says:
Figure S3. Anticancer effect of Pep #5-2 truncated and substitution mutants
A) Names and peptide sequences of each mutant. Peptides corresponding to each Pep #5-2 truncated or substitution mutant are linked to a cell penetration peptide, iRGD (highlighted with yellow boxes). B-E) Cell growth inhibition profiles and GI50 values of each mutant in representative cancer cell lines. GI50 values estimated from duplicated data are expressed as means ± SD . Data are presented as means ± SD of two independent biological replicates. Anticancer effect of ACP52C, ACP52-51C, ACP52-52C, and ACP52-4C (B), amino acid substitution mutants of ACP52 -4C (C), and ACP52C, ACP52-4C, ACP52-31C, and ACP52-32C (D). Cell growth inhibition was teste d in cells using MTT assay over peptide dose at 48 h after peptide treatment, and GI50 values estimated from duplicated data are expressed as means ± SD. ( E) Summary of GI50 values of each mutant in representative cancer cell lines. GI 50 values estimated from duplicated data are expressed as means ± SD. Two-tailed unpaired Student’s t-tests, ***P < 0.001; ns: non-significant. […]

Where a SMILES comes first, the peptide text is derived from it.

On to `CC(=O)N[C@@H](CC(N)=O)C(=O)N[C@@H](Cc1ccc(O)cc1)C(=O)N1CCC[C@H]1C(=O)N[C@@H](CCC(N)=O)C(=O)N[C@@H](CCCNC(=N)N)C(=O)N1CCC[C@H]1C(=O)N[C@@H](CS)C(=O)N[C@@H](CCCNC(=N)N)C(=O)NCC(=O)N[C@@H](CC(=O)O)C(=O)N[C@@H](CCCCN)C(=O)NCC(=O)N1CCC[C@H]1C(=O)N[C@@H](CC(=O)O)C(=O)N[C@@H](CS)C(N)=O` [ACP52C] (Ac-NYPQRPCRGDKGPDC-NH2), for which the growth inhibition result in data set [1] is given as “resistance”; in data set [3] it was “did not show any growth inhibition”. In addition, in data set [2], the adverse side effects result is listed as “did not exhibit any adverse side effects”.

For the origin of these results see article PMC10667816, “A Cell‐Penetrant Peptide Disrupting the Transcription Factor CP2c Complexes Induces Cancer‐Specific Synthetic Lethality” (Advanced Science, 2023).
